In ChEMBL document CHEMBL5291721, “A preclinical secondary pharmacology resource illuminates target-adverse drug reaction associations of marketed drugs” (Nat Commun, 2023) one finds AC50 data, which are given here for 7 compounds.

Targets include Melanocortin receptor 4 (Homo sapiens, UniProt P32245); Mu-type opioid receptor (Homo sapiens, UniProt P35372); Cannabinoid receptor 1 (Homo sapiens, UniProt P21554).
Assay [1] deals with T1, Alpha-1A adrenergic receptor (Homo sapiens, UniProt P35348).
T1 sequence (P35348 whole entry): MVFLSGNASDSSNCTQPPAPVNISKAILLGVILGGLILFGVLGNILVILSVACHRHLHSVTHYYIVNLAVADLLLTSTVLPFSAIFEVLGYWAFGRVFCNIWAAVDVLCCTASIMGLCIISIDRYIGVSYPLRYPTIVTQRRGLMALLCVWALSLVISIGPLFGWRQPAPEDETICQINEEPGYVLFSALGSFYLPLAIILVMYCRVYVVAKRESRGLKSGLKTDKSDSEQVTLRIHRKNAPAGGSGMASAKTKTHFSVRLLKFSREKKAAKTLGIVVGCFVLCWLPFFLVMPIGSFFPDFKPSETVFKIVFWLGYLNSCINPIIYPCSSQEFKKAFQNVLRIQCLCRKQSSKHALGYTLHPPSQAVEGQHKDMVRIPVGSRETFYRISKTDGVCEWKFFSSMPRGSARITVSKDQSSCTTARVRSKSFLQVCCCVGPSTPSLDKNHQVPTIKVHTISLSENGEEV

Assay [2] has as its target T2, Alpha-2A adrenergic receptor (Homo sapiens, UniProt P08913).
T2 sequence (P08913 whole entry): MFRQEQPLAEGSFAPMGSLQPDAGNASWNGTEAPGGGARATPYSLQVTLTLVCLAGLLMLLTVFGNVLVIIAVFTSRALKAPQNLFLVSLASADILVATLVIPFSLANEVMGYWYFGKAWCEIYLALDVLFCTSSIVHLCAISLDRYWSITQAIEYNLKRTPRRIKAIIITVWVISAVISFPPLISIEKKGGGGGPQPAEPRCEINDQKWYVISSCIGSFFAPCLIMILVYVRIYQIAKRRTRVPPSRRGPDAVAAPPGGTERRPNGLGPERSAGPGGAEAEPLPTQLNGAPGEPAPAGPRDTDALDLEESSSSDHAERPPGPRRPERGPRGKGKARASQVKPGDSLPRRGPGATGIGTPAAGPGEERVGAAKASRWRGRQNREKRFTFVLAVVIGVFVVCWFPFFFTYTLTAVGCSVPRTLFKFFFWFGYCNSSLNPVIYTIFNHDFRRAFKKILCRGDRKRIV
The format is functional, cell-based.

Assay [3] concerns the target Beta-2 adrenergic receptor (Homo sapiens, UniProt P07550). In kind it is functional, cell-based.
For a further assay, the target named is T3, B2 bradykinin receptor (Homo sapiens, UniProt P30411).
T3 sequence (P30411 whole entry): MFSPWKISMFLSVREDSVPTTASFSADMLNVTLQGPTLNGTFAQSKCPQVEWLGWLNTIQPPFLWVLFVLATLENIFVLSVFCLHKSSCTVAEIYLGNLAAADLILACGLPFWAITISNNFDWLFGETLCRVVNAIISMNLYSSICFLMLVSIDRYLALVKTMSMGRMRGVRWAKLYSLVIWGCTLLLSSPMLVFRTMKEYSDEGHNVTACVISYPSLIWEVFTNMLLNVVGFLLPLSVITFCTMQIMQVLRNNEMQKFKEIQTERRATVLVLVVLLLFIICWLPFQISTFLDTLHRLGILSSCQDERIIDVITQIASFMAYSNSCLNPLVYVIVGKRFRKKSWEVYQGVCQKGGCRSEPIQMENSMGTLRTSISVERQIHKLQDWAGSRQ

In assay [4] the target is T4, 5-hydroxytryptamine receptor 2B (Homo sapiens, UniProt P41595). In kind it is functional, cell-based.
For assay [5], the target named is T4, 5-hydroxytryptamine receptor 2B.
Assay [6] concerns the target Kappa-type opioid receptor (Homo sapiens, UniProt P41145).
In the next assay the target is T5, Thromboxane A2 receptor (Homo sapiens, UniProt P21731).
T5 sequence (P21731 whole entry): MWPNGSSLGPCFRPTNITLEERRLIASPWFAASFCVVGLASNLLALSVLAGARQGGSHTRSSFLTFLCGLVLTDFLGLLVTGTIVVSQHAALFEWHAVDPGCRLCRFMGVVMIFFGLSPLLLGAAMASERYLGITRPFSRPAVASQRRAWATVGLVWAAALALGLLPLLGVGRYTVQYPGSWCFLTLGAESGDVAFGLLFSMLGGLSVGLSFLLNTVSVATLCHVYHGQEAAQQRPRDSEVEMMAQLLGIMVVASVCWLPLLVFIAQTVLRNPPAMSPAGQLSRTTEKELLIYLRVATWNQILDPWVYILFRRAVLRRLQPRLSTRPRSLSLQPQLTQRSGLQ

Assay [7] has as its target T1, Alpha-1A adrenergic receptor. The format is functional, cell-based.
Further: assay procedure not described here.

T4 sequence (P41595 whole entry): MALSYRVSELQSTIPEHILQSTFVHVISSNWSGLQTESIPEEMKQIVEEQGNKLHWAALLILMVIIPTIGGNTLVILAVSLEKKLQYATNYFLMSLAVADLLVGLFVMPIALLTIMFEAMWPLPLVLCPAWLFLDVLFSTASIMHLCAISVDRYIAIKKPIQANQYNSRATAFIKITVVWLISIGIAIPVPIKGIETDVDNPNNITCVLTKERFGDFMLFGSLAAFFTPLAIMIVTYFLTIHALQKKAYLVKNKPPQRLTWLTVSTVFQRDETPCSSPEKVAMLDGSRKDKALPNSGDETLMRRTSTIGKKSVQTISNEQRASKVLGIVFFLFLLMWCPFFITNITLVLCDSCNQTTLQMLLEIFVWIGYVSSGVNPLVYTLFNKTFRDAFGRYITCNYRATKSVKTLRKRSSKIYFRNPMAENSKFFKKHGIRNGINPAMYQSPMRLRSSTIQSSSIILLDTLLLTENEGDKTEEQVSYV
Sequence of Cannabinoid receptor 1 (P21554 whole entry): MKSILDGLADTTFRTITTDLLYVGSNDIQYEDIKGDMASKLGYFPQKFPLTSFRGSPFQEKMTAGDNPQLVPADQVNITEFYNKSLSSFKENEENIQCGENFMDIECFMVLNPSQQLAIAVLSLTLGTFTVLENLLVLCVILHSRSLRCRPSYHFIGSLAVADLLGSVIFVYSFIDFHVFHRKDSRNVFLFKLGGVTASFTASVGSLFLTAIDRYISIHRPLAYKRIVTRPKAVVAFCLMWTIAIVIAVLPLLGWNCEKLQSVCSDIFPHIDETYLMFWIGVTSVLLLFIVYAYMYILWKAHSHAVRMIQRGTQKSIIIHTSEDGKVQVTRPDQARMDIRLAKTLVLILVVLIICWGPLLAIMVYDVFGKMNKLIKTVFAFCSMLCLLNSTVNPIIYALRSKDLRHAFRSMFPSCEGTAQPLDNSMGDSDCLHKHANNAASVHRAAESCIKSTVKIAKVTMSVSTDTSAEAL
Sequence of Kappa-type opioid receptor (P41145 whole entry): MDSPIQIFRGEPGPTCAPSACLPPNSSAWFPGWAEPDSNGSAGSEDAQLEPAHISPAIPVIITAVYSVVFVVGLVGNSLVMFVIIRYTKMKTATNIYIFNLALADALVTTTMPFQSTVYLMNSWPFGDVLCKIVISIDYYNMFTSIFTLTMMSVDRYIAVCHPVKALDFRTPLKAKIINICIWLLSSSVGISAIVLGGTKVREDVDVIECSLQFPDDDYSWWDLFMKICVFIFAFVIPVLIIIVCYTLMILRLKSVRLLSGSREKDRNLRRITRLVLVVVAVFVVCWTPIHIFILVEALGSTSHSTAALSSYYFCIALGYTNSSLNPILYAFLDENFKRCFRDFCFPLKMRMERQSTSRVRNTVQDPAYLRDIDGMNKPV
Sequence of Melanocortin receptor 4 (P32245 whole entry): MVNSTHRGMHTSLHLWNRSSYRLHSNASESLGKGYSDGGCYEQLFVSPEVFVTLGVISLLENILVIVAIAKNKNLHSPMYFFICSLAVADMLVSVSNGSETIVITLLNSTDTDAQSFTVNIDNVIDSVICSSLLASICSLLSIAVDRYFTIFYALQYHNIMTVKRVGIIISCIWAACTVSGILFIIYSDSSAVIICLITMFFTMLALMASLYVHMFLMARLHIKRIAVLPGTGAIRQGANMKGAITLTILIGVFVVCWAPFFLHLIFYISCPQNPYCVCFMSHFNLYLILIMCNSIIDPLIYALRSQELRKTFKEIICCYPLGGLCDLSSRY
Sequence of Beta-2 adrenergic receptor (P07550 whole entry): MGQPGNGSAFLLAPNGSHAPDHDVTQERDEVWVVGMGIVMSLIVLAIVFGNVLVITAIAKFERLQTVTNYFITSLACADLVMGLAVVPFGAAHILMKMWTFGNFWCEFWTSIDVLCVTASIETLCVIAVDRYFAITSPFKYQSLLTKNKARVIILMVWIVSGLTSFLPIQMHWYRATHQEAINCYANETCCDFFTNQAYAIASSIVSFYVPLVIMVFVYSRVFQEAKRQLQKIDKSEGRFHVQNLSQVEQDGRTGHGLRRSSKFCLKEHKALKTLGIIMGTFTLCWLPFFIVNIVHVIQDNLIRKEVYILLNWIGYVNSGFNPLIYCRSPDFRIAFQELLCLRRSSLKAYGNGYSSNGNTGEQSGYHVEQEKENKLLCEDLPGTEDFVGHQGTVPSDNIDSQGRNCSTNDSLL
Sequence of Mu-type opioid receptor (P35372 whole entry): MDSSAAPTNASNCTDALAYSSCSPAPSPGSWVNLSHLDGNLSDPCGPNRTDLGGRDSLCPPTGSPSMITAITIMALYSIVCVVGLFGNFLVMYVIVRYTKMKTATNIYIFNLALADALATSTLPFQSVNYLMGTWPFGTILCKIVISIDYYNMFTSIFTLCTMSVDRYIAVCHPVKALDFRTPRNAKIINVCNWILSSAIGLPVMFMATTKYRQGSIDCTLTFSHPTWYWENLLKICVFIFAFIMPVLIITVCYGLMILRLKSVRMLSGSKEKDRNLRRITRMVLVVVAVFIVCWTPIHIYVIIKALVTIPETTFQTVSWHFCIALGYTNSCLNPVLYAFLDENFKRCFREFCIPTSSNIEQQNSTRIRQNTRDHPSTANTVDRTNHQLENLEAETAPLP

For the compound `CNS(=O)(=O)Cc1ccc2[nH]cc(CCN(C)C)c2c1`, the AC50 (usually the concentration at which the activity in the assay is half-maximal) in [1] is over 30 µM; in [2], over 30 µM; in assay [3], over 30 µM; on B2 bradykinin receptor, over 30 µM; in assay [4] it was 13 µM; in [5] it was 14 µM. In addition, the AC50 on Melanocortin receptor 4 is over 30 µM; in [6], over 30 µM; at Thromboxane A2 receptor, over 30 µM; on Mu-type opioid receptor, over 10 µM; in assay [7], over 30 µM.

With `CCCCc1ncc(/C=C(\Cc2cccs2)C(=O)O)n1Cc1ccc(C(=O)O)cc1` [EPROSARTAN], the AC50 in assay [1] is over 10 µM; in assay [2], over 10 µM; in assay [3], over 30 µM; on B2 bradykinin receptor, over 30 µM; on Cannabinoid receptor 1, over 10 µM; in [4] it was over 10 µM. Besides, the AC50 was over 10 µM in assay [5]; over 10 µM at Melanocortin receptor 4; over 10 µM in assay [6]; over 10 µM at Thromboxane A2 receptor; over 10 µM on Mu-type opioid receptor; over 30 µM in assay [7].

Turning to `COc1ccc(CCN(C)CCCC(C#N)(c2cc(OC)c(OC)c(OC)c2)C(C)C)cc1OC` (centres undefined) [GALLOPAMIL], the AC50 is over 30 µM in assay [2]; over 30 µM in assay [3]; over 30 µM on B2 bradykinin receptor; over 30 µM in [4]; 0.0819 µM in [5]; 2.5 µM in assay [6]. The AC50 (on Thromboxane A2 receptor; in [7]) was over 30 µM in each case.

For the compound `C[C@H](N)[C@H](O)c1cccc(O)c1` [METARAMINOL], the AC50 in assay [1] was 30 µM; in assay [2] it was over 10 µM; on B2 bradykinin receptor, over 10 µM; at Cannabinoid receptor 1 it was over 10 µM; in [4], 12 µM; in assay [5], over 30 µM. In addition, the AC50 on Melanocortin receptor 4 is over 10 µM; in [6], over 10 µM; on Thromboxane A2 receptor it was over 10 µM; at Mu-type opioid receptor, over 30 µM.

On to `CC[C@@H]1C(=O)OC[C@@H]1Cc1cncn1C` [PILOCARPINE], for which the AC50 was over 10 µM in assay [1]; over 10 µM in assay [2]; over 30 µM in assay [3]; over 30 µM at B2 bradykinin receptor; 16.1 µM on Cannabinoid receptor 1; over 10 µM in [4]. Moreover, the AC50 was over 10 µM in [5]; over 30 µM at Melanocortin receptor 4; over 10 µM in assay [6]; over 30 µM on Thromboxane A2 receptor; over 30 µM at Mu-type opioid receptor; over 30 µM in [7].

Consider `CCCN(CCC)C(=O)C(CCC(=O)O)NC(=O)c1ccccc1` (centres undefined) [PROGLUMIDE], for which the AC50 in assay [1] was over 30 µM; in assay [2], over 10 µM; at B2 bradykinin receptor, over 30 µM; at Cannabinoid receptor 1, over 10 µM; in assay [4], over 10 µM; in assay [5], over 10 µM. For the same compound, the AC50 at Melanocortin receptor 4 is over 30 µM; in [6], over 10 µM; on Thromboxane A2 receptor, over 30 µM; at Mu-type opioid receptor, over 30 µM.

On to `CN1C(=O)C(O)N=C(c2ccccc2)c2cc(Cl)ccc21` (centres undefined) [TEMAZEPAM], for which the AC50 in [1] was over 10 µM; in [2] it was over 10 µM; in assay [3], over 30 µM; on B2 bradykinin receptor, over 30 µM; on Cannabinoid receptor 1 it was over 10 µM; in assay [4] it was over 10 µM. The AC50 was over 10 µM in [5]; over 30 µM on Melanocortin receptor 4; 9.19 µM in assay [6]; over 30 µM at Thromboxane A2 receptor; over 30 µM on Mu-type opioid receptor.
